In patent publication US20190083521A1, “COMBINATION THERAPY FOR TREATING CANCER” (Epizyme, Inc., priority 2014, published 2019):

Legend:
MOLM-13 (MLL-AF9) cells [1] = test: Combination proliferation assay with Compound A2 (CellTiter-Glo, Chou-Talalay CI); type: cell-based, human; conditions: MOLM-13; co-treatment model (Example 8)
Method in brief: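 Viability by CellTiter-Glo ATP luminescence; fraction affected versus DMSO controls, combination index by Chou-Talalay (CI <1 synergy, >1 antagonism).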

RS4-11 (MLL-AF4) cells = test: Example 7 retest: EPZ-5676 pre-treatment, second compound 72 h, Cell Titer Glo, growth inhibition; type: cell-based; conditions: Homo sapiens, 240 h, single agent, read-out: EPZ-5676 10-day IC50
ML-2 (MLL-AF6) cells = test: as above; type: cell-based; conditions: 240 h, single agent, read-out: EPZ-5676 10-day IC50
[2] = tested on: OCI-AML-4 (MLL-ENL) cells; test: Example 7 primary screen: 300 nM EPZ-5676 pre-treatment, second compound 72 h, ATPLite, GI100 shift; type: cell-based; conditions: 264 h; OCI-AML-4; single agent; read-out: EPZ-5676 11-day (Primary screen) IC50
Protocol: (§1) Cells were split using EPZ-5676 or DMSO containing growth media and further incubated for an additional 3-day pre-treatment time. Cells were finally seeded in growth media containing EPZ-5676 or DMSO in 384-well plates at 500 cell/well density. Cells were then equilibrated in incubators for 24 hours before treatment with a second compound. Treated assay plates were incubated with a second compound for 72 hours. After this time, plates were developed for endpoint analysis using ATPLite to measure ATP content, which is used as an indicator of cell viability.
(§2) “N/D” means the GI100 of the second compound could not be determined for both conditions and “-” means not tested.
(§3) Growth Inhibition (GI) as a measure of cell viability: The cell viability of vehicle was measured at the time of dosing the second agent (T0) and after seventy-two hours (T72). A GI reading of 0% represents no growth inhibition—cells treated with test compound as compared to T72 vehicle signals were measured. […] A GI 200% represents complete death of all cells in the culture well. Compounds reaching an activity plateau of GI 200% are considered cytotoxic. GI is calculated by applying the following test and equation: […]

SKM-1 (non-MLLr) cells [3] = test: as above; type: cell-based, human; conditions: Homo sapiens, 264 h; SKM-1; single agent; read-out: EPZ-5676 11-day (Primary screen) IC50
Protocol: as §1, §2, §3

MOLM-13 (MLL-AF9) cells [4] = test: as above; type: cell-based, human; conditions: Homo sapiens, 264 h; MOLM-13; single agent; read-out: EPZ-5676 11-day (Primary screen) IC50
Protocol: as §1, §2, §3

THP-1 (MLL-AF9) cells = test: Example 7 retest: EPZ-5676 pre-treatment, second compound 72 h, Cell Titer Glo, growth inhibition; type: cell-based; conditions: 240 h, single agent, read-out: EPZ-5676 10-day IC50
[5] = tested on: OCI-AML-4 (MLL-ENL) cells; test: as above; type: cell-based; conditions: 240 h, single agent
SKM-1 (non-MLLr) cells [6] = test: as above; type: cell-based; conditions: Homo sapiens, 240 h, single agent
MOLM-13 (MLL-AF9) cells [7] = test: as above; type: cell-based; conditions: Homo sapiens, 240 h, single agent

IC50 (RS4-11 (MLL-AF4) cells): > 3 µM | IC50 [2]: > 3 µM | IC50 (SKM-1 (non-MLLr) cells [3]): > 3 µM | IC50 (MOLM-13 (MLL-AF9) cells [4]): 0.15 µM | IC50 (THP-1 (MLL-AF9) cells): > 3 µM | IC50 ([5]; OCI-AML-4 (MLL-ENL), read-out: EPZ-5676 10-day IC50): > 3 µM | IC50 ([5]; OCI-AML-4, read-out: EPZ-5676 10-day (Retest) IC50): > 3 µM | IC50 (SKM-1 (non-MLLr) cells [6]; SKM-1 (non-MLLr), read-out: EPZ-5676 10-day IC50): > 3 µM | IC50 (SKM-1 (non-MLLr) cells [6]; SKM-1, read-out: EPZ-5676 10-day (Retest) IC50): > 3 µM | IC50 (MOLM-13 (MLL-AF9) cells [7]; MOLM-13 (MLL-AF9), read-out: EPZ-5676 10-day IC50): 0.075 µM | IC50 (MOLM-13 (MLL-AF9) cells [7]; MOLM-13, read-out: EPZ-5676 10-day (Retest) IC50): 0.075 µM
Structure (SMILES): CC(C)N(C[C@H]1O[C@@H](n2cnc3c(N)ncnc32)[C@H](O)[C@@H]1O)[C@H]1C[C@@H](CCc2nc3cc(C(C)(C)C)ccc3[nH]2)C1 [Compound A2, pinometostat]
Combination effect with T0070907 (PPAR antagonist) (MOLM-13 (MLL-AF9) cells [1]): Synergy (Drug synergy was statistically defined by CI values less than 1) | IC50 (ML-2 (MLL-AF6) cells): > 3 µM
